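96-well plates; 48 h exposure; 5 concentrations. Endpoints by linear interpolation between flanking doses. Not reached: highest tested concentration assigned. GI50 is the concentration that inhibits growth by half.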 Activity calls are given as the source filed them. Rule as the data show it: active = GI50 up to about 1.1 µM and inactive = higher.
Tests used:
Test in all cases: growth of human tumour cells (NCI), 48 h
[1] = tested on: RXF 631
[2] = tested on: UO-31
[3] = tested on: ACHN
[4] = tested on: SNB-75
[5] = tested on: OVCAR-3
[6] = tested on: M14
[7] = tested on: SNB-78
[8] = tested on: OVCAR-4
[9] = tested on: TK-10
[10] = tested on: Malme-3M
[11] = tested on: NCI-H23
[12] = tested on: SK-MEL-28
[13] = tested on: EKVX
[14] = tested on: SF-539
[15] = tested on: DMS-273
[16] = tested on: KM12
[17] = tested on: A498
[18] = tested on: SW-620
[19] = tested on: SNB-19
[20] = tested on: RPMI-8226
[21] = tested on: OVCAR-5
[22] = tested on: LOX IMVI
[23] = tested on: K562
[24] = tested on: HCT-116
[25] = tested on: DLD-1
[26] = tested on: DMS-114
[27] = tested on: M19-MEL
[28] = tested on: HCT-15
[29] = tested on: SK-MEL-5
[30] = tested on: KM-20L2
[31] = tested on: HOP-62
[32] = tested on: UACC-62
[33] = tested on: SK-OV-3
[34] = tested on: SN12C
[35] = tested on: CAKI-1
[36] = tested on: A549
[37] = tested on: 786-0
[38] = tested on: LXFL 529
[39] = tested on: CCRF-CEM
[40] = tested on: HOP-18
[41] = tested on: RXF 393
[42] = tested on: MOLT-4
[43] = tested on: COLO 205
[44] = tested on: SF-268
[45] = tested on: NCI-H522
[46] = tested on: HOP-92
[47] = tested on: XF498
[48] = tested on: OVCAR-8
[49] = tested on: U-251
[50] = tested on: HCC 2998
[51] = tested on: SK-MEL-2
[52] = tested on: UACC-257
[53] = tested on: IGROV-1
[54] = tested on: SF-295
[55] = tested on: HT-29
[56] = tested on: HL-60
[57] = tested on: NCI-H226
[58] = tested on: NCI-H460

Measured: GI50

Nc1ccc(C(=O)N/C(=C\C=C\c2ccco2)c2nc3c4c(ccc3[nH]2)C(=O)c2ccccc2C4=O)cc1
inactive: [1] 32.8 µM | [2] 2.34 µM | [3] 10.8 µM | [4] 14.2 µM | [5] 32.9 µM | [6] 55 µM | [7] 64.6 µM | [8] 52.4 µM | [9] 23.1 µM | [10] 85.9 µM | [11] 41.5 µM | [12] 36.6 µM | [13] 28.1 µM | [14] 17.2 µM | [15] 29.5 µM | [16] 13.6 µM | [17] 22.4 µM | [18] 33 µM | [19] 39.7 µM | [20] 3.21 µM | [21] > 100 µM | [22] 25.5 µM | [23] 26.8 µM | [24] 24.8 µM | [25] 13.3 µM | [26] 18.5 µM | [27] 79.6 µM | [29] 38 µM | [30] 55.6 µM | [31] 56.2 µM | [32] 25 µM | [33] 21.7 µM | [34] 29.4 µM | [35] 24.6 µM | [36] 21 µM | [37] 30.3 µM | [38] 49.1 µM | [40] 11.4 µM | [41] 25.2 µM | [42] 3.67 µM | [43] 61.1 µM | [44] 10.2 µM | [45] 15.8 µM | [46] 37 µM | [47] > 100 µM | [48] 32.2 µM | [49] 31.3 µM | [50] 44.9 µM | [51] 26.5 µM | [52] > 100 µM | [53] 21.4 µM | [54] 31.7 µM | [55] 49.7 µM
active: [39] 1.09 µM
31.9 µM: [28]

CC(C)c1cccc(C(C)C)c1NC(=O)C(=O)Cc1nc2ccc([N+](=O)[O-])cc2nc1O
9.31 µM: [28]
inactive: [1] 40.8 µM | [2] > 100 µM | [3] 54.5 µM | [4] > 100 µM | [56] > 100 µM | [5] > 100 µM | [6] 28.1 µM | [8] 64.3 µM | [9] > 100 µM | [10] > 100 µM | [57] > 100 µM | [11] 31.9 µM | [12] 86.1 µM | [13] 44.2 µM | [14] 78.3 µM | [15] 44.4 µM | [16] 13.5 µM | [17] 58.5 µM | [18] 71.6 µM | [19] > 100 µM | [21] > 100 µM | [22] 23.2 µM | [23] 30.2 µM | [24] 39.2 µM | [25] > 100 µM | [26] 10.5 µM | [27] 80.9 µM | [29] > 10 µM | [30] 20.1 µM | [32] 24.5 µM | [33] > 100 µM | [58] 70.1 µM | [35] 75.3 µM | [36] 53.6 µM | [37] > 100 µM | [38] 28.2 µM | [39] 18.6 µM | [40] > 100 µM | [41] > 100 µM | [42] 74.1 µM | [43] 41.8 µM | [45] 6.35 µM | [46] 50.6 µM | [50] 39.6 µM | [51] 61 µM | [52] 69.2 µM | [53] > 100 µM | [54] > 100 µM | [55] > 100 µM

O=C(CC(=O)N1N=C(n2ccc3ccccc32)CC1c1ccccc1)Nc1ccc(Cl)cc1 (centres undefined)
inactive: [1] > 100 µM | [2] > 100 µM | [3] > 100 µM | [4] 59.7 µM | [56] > 100 µM | [5] > 100 µM | [6] > 100 µM | [7] > 100 µM | [8] > 100 µM | [9] > 100 µM | [10] > 100 µM | [11] > 100 µM | [12] > 100 µM | [13] > 100 µM | [14] 8.75 µM | [15] > 100 µM | [16] > 100 µM | [17] > 100 µM | [18] > 100 µM | [19] > 100 µM | [20] 52.1 µM | [21] > 100 µM | [22] > 100 µM | [23] > 100 µM | [24] > 100 µM | [25] > 100 µM | [26] > 100 µM | [27] > 100 µM | [30] > 100 µM | [31] > 100 µM | [32] > 100 µM | [33] > 100 µM | [58] > 100 µM | [34] > 100 µM | [36] > 100 µM | [37] > 100 µM | [38] > 100 µM | [39] > 100 µM | [40] > 100 µM | [41] > 100 µM | [42] 8.39 µM | [43] > 100 µM | [44] > 100 µM | [45] > 100 µM | [46] 77.6 µM | [48] > 100 µM | [49] > 100 µM | [50] > 100 µM | [51] > 100 µM | [52] > 100 µM | [53] > 100 µM | [54] > 100 µM | [55] > 100 µM
> 100 µM: [28]

From ChEMBL document CHEMBL1201862, “PubChem BioAssay data set” (2004)
